“Also recorded” adds a separate entry of the source.
Key:
[1] = tested on: MCF10A; assay: Raptinal toxicity in various cell lines, 24 hour IC50; assay type: cell-based; conditions: MCF-10A; MCF10A (Human Breast Tissue); 24 hour incubation; mean ± SD
[2] = tested on: 3T3; assay: Raptinal toxicity, 24 hour IC50 (sulforhodamine B assay for adherent cells); assay type: cell-based; conditions: NIH3T3; 3T3 (Mouse Embryonic Fibroblasts); 24 hour incubation; mean ± SD
Method: (§1) Sulforhodamine B Assay for Adherent Cells.
(§2) Serial dilutions of compound in 100% DMSO were added in triplicate (2 μL to each well) to empty wells of a 96-well plate. Adherent cells (3T3, Hs888Lu, MCF-7, HeLa, WT-MEF, 4T1, B16-F10, SK-MEL-5, MIA PaCa2, BT-549, MDA-MB-436, 143B, HOS, H460, H1993) cells were added to each well (5×10^3 cells in 198 μL of RPMI 1640, DMEM or EMEM media). The plates were incubated for 24 hours. The media was removed from the plate and ice-cold trichloroacetic acid (100 μL of 10% w/v trichloroacetic acid) was added to the plates which were then incubated at 4° C. overnight to fix the cells. The trichloroacetic acid was removed and the wells washed with 200 μL of de-ionized water 5 times. Sulforhodamine B (200 μL of 0.04% sodium salt dissolved in 1% acetic acid) was added to each well and the plates incubated at room temperature for 30 min. Excess sulforhodamine B was removed by washing the plates 5 times with 1% acetic acid. The bound dye was released by the addition of unbuffered Tris-base (200 μL of 10 mM solution) and after a 30 min incubation at room temperature the absorbance at 510 nm was measured (Molecular Devices SpectraMax Plus 384 plate reader). The mean IC50 values and standard deviations were determined from three independent experiments.

[3] = tested on: WT-MEF; assay: as above; assay type: cell-based; conditions: Fibroblast; WT-MEF (Mouse Embryonic Fibroblasts); 24 hour incubation; mean ± SD
Method: as §1, §2

[4] = tested on: HL-60; assay: Raptinal toxicity, 24 hour IC50 (MTS assay for suspension cells); assay type: cell-based; conditions: HL-60 (Human Leukemia); 24 hour incubation; mean ± SD
Method: (§3) MTS Assay for Suspension Cells.
(§4) Serial dilutions of compound in 100% DMSO were added in triplicate (2 μL to each well) to empty wells of a 96-well plate. Suspension cells (HL-60, U-937, SKW 6.4, Jurkat W T, Jurkat CASP8^−/−, Jurkat FADD^−/−, Jurkat Bcl-2) cells in RPMI 1640 media were added to 96-well plates (198 μL containing 4×10^4 cells) and the cells incubated for 24 hours.

[5] = tested on: Jurkat; assay: as above; assay type: cell-based; conditions: Jurkat (Human Leukemia); 24 hour incubation; mean ± SD
Method: as §3, §4

[6] = tested on: SKW 6.4; assay: as above; assay type: cell-based; conditions: SKW 6.4 (Human Lymphoma); 24 hour incubation; mean ± SD
Method: as §3, §4

[7] = tested on: U-937; assay: as above; assay type: cell-based; conditions: U-937 (Human Lymphoma); 24 hour incubation; mean ± SD
Method: as §3, §4

[8] = tested on: various cancer and non-cancerous cell lines; assay: 24 hour IC50 across various cancer and non-cancerous cell lines; assay type: cell-based; conditions: various cancer and non-cancerous cell lines (Table 1, FIG. 4D)
Method: as §3, §4, §1
as §2, with “The trichloroacetic acid was removed and the wells washed with 200 μL of de-ionized water 5 times. Sulforhodamine B (200 μL of 0.04% sodium salt dissolved in 1% acetic acid) was added to each well and the plates incubated at room temperature for 30 min. Excess sulforhodamine B was removed by washing the plates 5 times with 1% acetic acid.” left out

[9] = target: T1, recombinant procaspase-3 (Homo sapiens, UniProt P42574); assay: In vitro activation of procaspase-3; assay type: biochemical; conditions: up to 100 μM; 250 nM procaspase-3; Ac-DEVD-AFC cleavage
T1 construct: His tag (inferred from the nickel-NTA purification); made in house
T1 sequence (P42574 whole entry): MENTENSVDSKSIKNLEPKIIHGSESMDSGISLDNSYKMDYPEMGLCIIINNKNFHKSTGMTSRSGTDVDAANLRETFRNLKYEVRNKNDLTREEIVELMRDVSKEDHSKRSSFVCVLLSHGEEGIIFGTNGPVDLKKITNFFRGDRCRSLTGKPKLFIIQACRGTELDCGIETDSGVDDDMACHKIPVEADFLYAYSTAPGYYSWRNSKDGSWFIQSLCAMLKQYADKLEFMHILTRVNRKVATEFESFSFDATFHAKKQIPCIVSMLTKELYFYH
Method: In Vitro Activation of Procaspase-3.
Procaspase-3 was expressed as described previously and purified with Qiagen nickel-NTA resin (Hsu et al., 2012). Increasing concentrations of Raptinal (0, 10, 25, 50 and 100 μM) and 25 μM 1541B were assessed for their capacity to enhance the activity of procaspase-3 over time. 250 nM procaspase-3 was treated with compounds in caspase activity buffer (50 mM HEPES, 50 mM KCl, 0.1 mM EDTA, 10 mM DTT, 0.01% Triton X-100, pH 7.4) and activity was assessed by cleavage of Ac-DEVD-AFC (50 μM) at designated time points.

[10] = tested on: zebrafish embryos; assay: Apoptosis in zebrafish (secretory annexin V-YFP); assay type: in vivo; conditions: transgenic embryos 24 hours post fertilization; 10 μM for 1.5 hours
Method: Zebrafish experiments were performed as described (van Ham et al., 2010). TuAB zebrafish embryos were used for all experiments and were incubated at 28° C. in HEPES-buffered E3 zebrafish medium (pH 7.2) in the dark. Chemical treatments (10 μM Raptinal or vehicle, 1% v/v final DMSO) were performed in multi-well plates in buffered E3 medium. Images were taken using an AxioCam MRc camera and AxioVision 4.8 software (Zeiss). To quantify apoptosis, the number of secA5-YFP+ apoptotic cells was counted manually in embryos using a fluorescence dissection stereomicroscope (Discovery V8; Zeiss, Germany).

[11] = tested on: B16-F10 melanoma; assay: Syngeneic subcutaneous tumor model; assay type: in vivo, C57BL/6 mice; conditions: 20 mg/kg IP once daily for 3 days
Method: (§5) All animal studies were performed with prior approval by the University of Illinois at Urbana-Champaign IACUC committee. […]. Seven days (for B16-F10) and six days (for 4T1) after inoculation, the mice were randomized based upon tumor size with 7 mice per group. Vehicle or compound was administered intraperitoneally as a corn oil DMSO suspension (300 μL of 10% DMSO in trans fat-free corn oil, 20 mg/kg) once daily for 3 consecutive days for B16-F10 and 4 consecutive days for 4T1 models. Tumor measurements were performed every other day using a caliper and tumor volume was calculated using the equation (0.5×l×w^2).

[12] = tested on: 4T1 breast cancer; assay: Syngeneic subcutaneous tumor model; assay type: in vivo, BALB/c mice; conditions: 4T1 model; 20 mg/kg IP once daily for 4 days
Method: as §5

[13] = tested on: adherent cell lines (HOS, H1993, SK-MEL-5, MIA PaCa-2); assay: Adherent cell lines: cell death by AV/PI staining and immunoblots; assay type: cell-based, Human; conditions: HOS, H1993, SK-MEL-5, MIA PaCa-2, 10 μM
[14] = tested on: U-937 cells; assay type: cell-based, Human; conditions: 20 minute treatment, dihydroethidium, flow cytometry
Method: Measurement of Cellular ROS Production.
U-937 cells (1 mL of 5×10^5 cells/mL) in Hank's buffered salt solution (HBSS) containing 5 mM glucose were treated with DMSO, 2 or 10 μM Raptinal, 10 μM thapsigargin, 100 μM etoposide (1% DMSO final) and incubated in the presence of 5 μM dihydroethidium a 37° C., 5% CO2 incubator for 20 minutes. […]. The levels of ethidium were assessed by flow cytometry. Live cells were analyzed based on gating on the forward and side scatter properties and the geometric mean of ethidium staining was determined using the software FCS Express.

[15] = tested on: Jurkat cells; assay: AV/PI assay in Jurkat cell lines (WT, caspase-8 deletion, FADD deletion, Bcl-2 upregulation); assay type: cell-based, Human; conditions: 10 μM, 2 hours

Q: `O=CC1(C2(C=O)c3ccccc3-c3ccccc32)c2ccccc2-c2ccccc21` [Raptinal, [9,9′]bifluorenyl-9,9′-dicarbaldehyde] was tested. Which IC50 [1] did it give?
A: 3 ± 0.2 µM

Q: And the IC50 [2]?
A: 1 ± 0.2 µM

Q: And the IC50 [3]?
A: 2.4 ± 0.7 µM

Q: And the IC50 [4]?
A: 2.1 ± 1.4 µM

Q: What about the IC50 [5] of the same compound?
A: 2.7 ± 0.9 µM

Q: What about the IC50 [6] of the same compound?
A: 1.1 ± 0.1 µM

Q: And the IC50 [7]?
A: 0.7 ± 0.3 µM

Q: And the IC50 [8]?
A: 0.7 to 3.4 µM

Q: What about the “direct activation of recombinant procaspase-3 (enzymatic activity)” value [9] of the same compound?
A: does not directly activate; also recorded: no increase in enzymatic activity

Q: What about the apoptotic cells [10] of the same compound?
A: 80 cells per fish

Q: What about the “retardation of tumor mass relative to controls” value [11] of the same compound?
A: 60%

Q: And the “retardation of tumor volume relative to controls” value [11]?
A: 60%

Q: What about the growth inhibition [12] of the same compound?
A: 50%

Q: What about the “speed of cell death induction versus 1541B and staurosporine” value ([13]; AV/PI) of the same compound?
A: substantially faster than the other agents

Q: What about the “procaspase-3 activation and PARP-1 cleavage within 2 hours” value ([13]; immunoblots) of the same compound?
A: the only agent capable of activating procaspase-3 and inducing subsequent PARP-1 cleavage within 2 hours

Q: And the “production of reactive oxygen species (superoxide anion radicals)” value [14]?
A: rapid accumulation of superoxide anion radicals; also recorded: observed

Q: What about the “sensitivity of Jurkat Bcl-2 overexpressing versus wild type cells” value [15] of the same compound?
A: less susceptible; also recorded: partial resistance

Q: What about the “sensitivity of Jurkat caspase-8−/− versus wild type cells” value [15] of the same compound?
A: equally susceptible; also recorded: equally as sensitive
